# Experimental data as given in ChEMBL document CHEMBL3112450, “Synthesis and in vitro antitumor evaluation of primary amine substituted quinazoline linked benzimidazole” (Bioorg Med Chem Lett, 2014).
# Legend:
# [1] = test system: U-251; experiment: Cytotoxicity against human U251 cells assessed as cell growth at 10^-7 M after 48 hrs by SRB assay; type: functional; settings: U-251, 48 h, read-out: Activity
# [2] = test system: SK-MEL-28; experiment: Cytotoxicity against human SK-MEL-28 cells after 48 hrs by SRB assay; type: functional; settings: SK-MEL-28, 48 h
# [3] = test system: 786-0; experiment: Cytotoxicity against human 786-0 cells assessed as cell growth at 10^-8 M after 48 hrs by SRB assay; type: functional; settings: 786-0, 48 h, read-out: Activity
# [4] = Cytotoxicity against human NCI-ADR-RES cells after 48 hrs by SRB assay; type: functional
# [5] = test system: OVCAR-8; experiment: Cytotoxicity against human OVCAR8 cells assessed as cell growth at 10^-6 M after 48 hrs by SRB assay; type: functional; settings: OVCAR-8, 48 h, read-out: Activity
# [6] = test system: NCI-H522; experiment: Cytotoxicity against human NCI-H522 cells assessed as cell growth at 10^-7 M after 48 hrs by SRB assay; type: functional; settings: NCI-H522, 48 h, read-out: Activity
# [7] = test system: IGROV-1; experiment: Cytotoxicity against human IGROV1 cells assessed as cell growth at 10^-7 M after 48 hrs by SRB assay; type: functional; settings: IGROV-1, 48 h, read-out: Activity
# [8] = Cytotoxicity against human UO31 cells after 48 hrs by SRB assay; type: functional; settings: UO-31, 48 h
# [9] = test system: SN12C; experiment: Cytotoxicity against human SN12C cells assessed as cell growth at 10^-7 M after 48 hrs by SRB assay; type: functional; settings: read-out: Activity
# [10] = test system: MDA-MB-468; experiment: Cytotoxicity against human MDA-MB-468 cells assessed as cell growth at 10^-7 M after 48 hrs by SRB assay; type: functional; settings: MDA-MB-468, 48 h, read-out: Activity
# [11] = test system: SF-295; experiment: Cytotoxicity against human SF295 cells assessed as cell growth at 10^-7 M after 48 hrs by SRB assay; type: functional; settings: SF-295, 48 h, read-out: Activity
# [12] = test system: UACC-62; experiment: Cytotoxicity against human UACC62 cells assessed as cell growth at 10^-8 M after 48 hrs by SRB assay; type: functional; settings: UACC-62, 48 h, read-out: Activity
# [13] = Cytotoxicity against human UO31 cells assessed as cell growth at 10^-6 M after 48 hrs by SRB assay; type: functional; settings: UO-31, 48 h, read-out: Activity
# [14] = test system: HCT-15; experiment: Cytotoxicity against human HCT15 cells assessed as cell growth at 10^-4 M after 48 hrs by SRB assay; type: functional; settings: HCT-15, 48 h, read-out: Activity
# [15] = test system: SK-MEL-28; experiment: Cytotoxicity against human SK-MEL-28 cells assessed as cell growth at 10^-7 M after 48 hrs by SRB assay; type: functional; settings: SK-MEL-28, 48 h, read-out: Activity
# [16] = test system: SNB-75; experiment: Cytotoxicity against human SNB75 cells after 48 hrs by SRB assay; type: functional, cell-based; settings: SNB-75, 48 h
# [17] = test system: TK-10; experiment: Cytotoxicity against human TK10 cells assessed as cell growth at 10^-6 M after 48 hrs by SRB assay; type: functional; settings: TK-10, 48 h, read-out: Activity
# [18] = test system: SR; experiment: Cytotoxicity against human SR cells after 48 hrs by SRB assay; type: functional
# [19] = test system: T47D; experiment: Cytotoxicity against human T47D cells assessed as growth inhibition at 10 uM after 48 hrs by SRB assay; type: functional; settings: read-out: GI
# [20] = test system: NCI-H460; experiment: Cytotoxicity against human NCI-H460 cells assessed as cell growth at 10^-4 M after 48 hrs by SRB assay; type: functional; settings: NCI-H460, 48 h, read-out: Activity
# [21] = test system: K562; experiment: Cytotoxicity against human K562 cells after 48 hrs by SRB assay; type: functional; settings: K562, 48 h
# [22] = test system: OVCAR-8; experiment: Cytotoxicity against human OVCAR8 cells assessed as growth inhibition at 10 uM after 48 hrs by SRB assay; type: functional; settings: OVCAR-8, 48 h, read-out: GI
# [23] = test system: PC-3; experiment: Cytotoxicity against human PC3 cells assessed as growth inhibition at 10 uM after 48 hrs by SRB assay; type: functional; settings: PC-3, 48 h, read-out: GI
# [24] = test system: SK-MEL-5; experiment: Cytotoxicity against human SK-MEL-5 cells assessed as cell growth at 10^-8 M after 48 hrs by SRB assay; type: functional; settings: SK-MEL-5, 48 h, read-out: Activity
# [25] = Cytotoxicity against human OVCAR5 cells assessed as cell growth at 10^-6 M after 48 hrs by SRB assay; type: functional; settings: OVCAR-5, 48 h, read-out: Activity
# [26] = test system: HT-29; experiment: Cytotoxicity against human HT-29 cells after 48 hrs by SRB assay; type: functional; settings: HT-29, 48 h
# [27] = test system: MDA-MB-468; experiment: Cytotoxicity against human MDA-MB-468 cells assessed as cell growth at 10^-8 M after 48 hrs by SRB assay; type: functional; settings: MDA-MB-468, 48 h, read-out: Activity
# [28] = test system: NCI-H460; experiment: Cytotoxicity against human NCI-H460 cells after 48 hrs by SRB assay; type: functional; settings: NCI-H460, 48 h
# [29] = test system: SK-MEL-5; experiment: Cytotoxicity against human SK-MEL-5 cells assessed as cell growth at 10^-4 M after 48 hrs by SRB assay; type: functional; settings: SK-MEL-5, 48 h, read-out: Activity
# [30] = test system: U-251; experiment: Cytotoxicity against human U251 cells after 48 hrs by SRB assay; type: functional; settings: U-251, 48 h
# [31] = test system: CCRF-CEM; experiment: Cytotoxicity against human CCRF-CEM cells assessed as cell growth at 10^-4 M after 48 hrs by SRB assay; type: functional; settings: read-out: Activity
# [32] = test system: OVCAR-3; experiment: Cytotoxicity against human OVCAR3 cells assessed as cell growth at 10^-4 M after 48 hrs by SRB assay; type: functional; settings: OVCAR-3, 48 h, read-out: Activity
# [33] = test system: COLO 205; experiment: Cytotoxicity against human COLO205 cells assessed as growth inhibition at 10 uM after 48 hrs by SRB assay; type: functional; settings: COLO 205, 48 h, read-out: GI
# [34] = test system: SK-MEL-2; experiment: Cytotoxicity against human SK-MEL-2 cells after 48 hrs by SRB assay; type: functional; settings: SK-MEL-2, 48 h
# [35] = test system: IGROV-1; experiment: Cytotoxicity against human IGROV1 cells assessed as cell growth at 10^-8 M after 48 hrs by SRB assay; type: functional; settings: IGROV-1, 48 h, read-out: Activity
# [36] = Cytotoxicity against human OVCAR5 cells assessed as cell growth at 10^-8 M after 48 hrs by SRB assay; type: functional; settings: OVCAR-5, 48 h, read-out: Activity
# [37] = test system: SF-539; experiment: Cytotoxicity against human SF539 cells assessed as cell growth at 10^-7 M after 48 hrs by SRB assay; type: functional; settings: SF-539, 48 h, read-out: Activity
# [38] = test system: RPMI-8226; experiment: Cytotoxicity against human RPMI8226 cells assessed as growth inhibition at 10 uM after 48 hrs by SRB assay; type: functional; settings: RPMI-8226, 48 h, read-out: GI
smiles,measurement,setting,value
C=CCn1c(C)nc2ccc(Nc3nc(Nc4ccc(F)cc4)nc4ccccc34)cc21,growth at 0.1 µM,[1],92%
same,GI50,[2],1.65 µM
same,LC50,[2],5.94 µM
same,TGI,[2],3.13 µM
same,growth at 0.01 µM,[3],93%
same,GI50,[4],4.01 µM
same,LC50,[4],> 100 µM
same,TGI,[4],37.7 µM
same,growth at 1 µM,[5],93%
same,growth at 0.1 µM,[6],84%
same,growth at 0.1 µM,[7],94%
same,GI50,[8],4.53 µM
same,LC50 (concentration causing 50% net cell kill),[8],52.8 µM
same,TGI,[8],19.3 µM
same,growth at 0.1 µM,[9],96%
same,growth at 0.1 µM,[10],74%
same,growth at 0.1 µM,[11],92%
same,growth at 0.01 µM,[12],99%
same,growth at 1 µM,[13],83%
same,growth at 100 µM,[14],-38%
same,growth at 0.1 µM,[15],102%
same,GI50,[16],1.51 µM
same,IC50,[16],7.5 µM
same,TGI,[16],3.37 µM
same,growth at 1 µM,[17],100%
same,GI50,[18],2.26 µM
same,LC50,[18],> 100 µM
same,TGI,[18],5.93 µM
same,inhibition of growth at 10 µM,[19],50%
same,growth at 100 µM,[20],-55%
same,GI50,[21],3.13 µM
same,LC50 (concentration killing 50% of cells),[21],> 100 µM
same,TGI,[21],11.9 µM
same,inhibition of growth at 10 µM,[22],50%
same,inhibition of growth at 10 µM,[23],50%
same,growth at 0.01 µM,[24],92%
same,growth at 1 µM,[25],92%
same,GI50,[26],3 µM
same,LC50 (concentration killing 50% of cells),[26],> 100 µM
same,TGI,[26],13.3 µM
same,growth at 0.01 µM,[27],78%
same,GI50,[28],3.11 µM
same,LC50 (concentration killing 50% of cells),[28],83.9 µM
same,TGI,[28],14.5 µM
same,growth at 100 µM,[29],-69%
same,GI50,[30],3.15 µM
same,TGI,[30],14.9 µM
same,CC50,[30]; read-out: LC50 (the source's name),48.9 µM
same,growth at 100 µM,[31],-23%
same,growth at 100 µM,[32],-90%
same,inhibition of growth at 10 µM,[33],50%
same,GI50,[34],3.16 µM
same,LC50,[34],53.3 µM
same,TGI,[34],11.4 µM
same,growth at 0.01 µM,[35],95%
same,growth at 0.01 µM,[36],101%
same,growth at 0.1 µM,[37],98%
C=CCn1c(C)nc2cc(Nc3nc(NCCO)nc4ccccc34)ccc21,inhibition of growth at 10 µM,[38],30%
same,inhibition of growth at 10 µM,[19],30%
same,inhibition of growth at 10 µM,[22],30%
same,inhibition of growth at 10 µM,[23],30%
same,inhibition of growth at 10 µM,[33],50%
C=CCn1c(C)nc2ccc(Nc3nc(Sc4ccc(N)cc4)nc4ccccc34)cc21,inhibition of growth at 10 µM,[38],40%
same,inhibition of growth at 10 µM,[19],30%
same,inhibition of growth at 10 µM,[22],30%
